Results from patent US9675564B2, “Composition based on ubidecarenone” (Asoltech Srl, priority 2011, dated 2017).
In brackets after ≈: the same amount, converted by molar mass.

What was measured:
H9C2 cells = experiment: Absorption in cardiomyoblasts: intracell penetration and penetration of the mitochondrial membrane, CoQ10 quantified by HPLC; format: cell-based, rats; details: cultured cells after administration; FIG. 2
Procedure: Despite the large number of clinical studies on the effects of Coenzyme Q10 supplementation, there are very few experimental data concerning the content of coenzyme Q10 in mitochondria and the cell energy condition after supplementation. Probably, controversial results of clinical and in vitro studies are mainly due to the bio-availability of the form of coenzyme Q10 used.
For this analysis, T67 cells of human astrocytoma and H9C2 cells from rats, deriving from the heart, were cultured in a Dulbecco's modified Eagle medium (DMEM), supplemented with 10% of fetal bovine serum (FBS), 100 Ul/ml of penicillin, 100 μg/ml of streptomycin and 40 μg/ml of gentamicin, in an atmosphere of 5% CO2 at 37° C., with saturation humidity. The vitality of the cells and their number were measured using the exclusion method with Tripan blue (Lowry et al.). The mitochondria were isolated using known procedures (Chomyn, 1996). The cells treated were washed carefully with PBS before the extraction procedures. The extraction of the coenzyme Q10 from the isolated cells and mitochondria was performed as described by Takada et al. (Takada et al., 1984). The quantification of the coenzyme Q10 was done by means of HPLC analysis. […]

[1] = Solubility in water at 37° C. (excess powder, CoQ10 passing into solution by UV or HPLC); format: physicochemical; details: thermodynamic from solid
Procedure: The solubility in water at 37° C. (physiological temperature) of the composition according to the present invention was compared with that of the compositions in the examples of comparison.
Verification is carried out after 1 hour and 24 hours (balanced) using the suitable analytical method (for example UV or HPLC spectrophotometry) of the maximum quantity of coenzyme Q10 that passes into the solution.

CoQ10 passing from the whole cells to the mitochondria (H9C2 cells): 4%
solubility at 1 h ([1]; after 1 hour): 1 µg/mL (≈ 1.16 µM)
solubility at 24 h ([1]; after 24 hours (balanced)): 4 µg/mL (≈ 4.63 µM)
Compound: COC1=C(OC)C(=O)C(C/C=C(\C)CC/C=C(\C)CC/C=C(\C)CC/C=C(\C)CC/C=C(\C)CC/C=C(\C)CC/C=C(\C)CC/C=C(\C)CC/C=C(\C)CCC=C(C)C)=C(C)C1=O [CoQ10, ubidecarenone]
